Source: EP0489877B1, “ANTIATHEROSCLEROTIC AND ANTITHROMBOTIC 2-AMINO-6-PHENYL-4H-PYRAN-4-ONES” (THE UPJOHN COMPANY, priority 1990, dated 1992)

These compounds were tested on fibroblasts (assay: Antiproliferative assay (inhibition of cell proliferation, procedure of Pledger et al.)). Conditions: not given.
Format: cell-based
Source text: The compounds of Formula I are active as inhibitors of cell proliferation as shown in Table 1 by the test procedure described in Pledger W.J., Stiles C.D., Antniades H.N., Scher C.D., (Proc. Natl. Acad. Sci (USA) (1977). In addition, various compounds of Formula I are also inhibitors of ADP induced platelet aggregation and are useful in the prevention or treatment of thrombotic diseases and related complications by, for example, inhibition or reversal of platelet aggregation, or platelet adhesion or blood coagulation. […]

In the case of O=c1cc(CN2CCOCC2)oc(-c2ccc(O)cc2)c1 [Compound 14, 2-(4-hydroxyphenyl)-6-(4-morpholinylmethyl)-4H-pyran-4-one], the “antiproliferation or inhibition activity (in words)” value is reported as “no measurable antiproliferation or inhibition activity”.

Same assay, conditions: Fibroblast

Going from O=c1cc(-c2ccc(F)cc2)oc(N2CCOCC2)c1 [Compound 22, 2-(4-Fluorophenyl)-6-(4-morpholinyl)-4H-pyran-4-one] to Nc1ccc(-c2cc(=O)cc(N3CCOCC3)o2)cc1 [Compound 25, 2-(4-Aminophenyl)-6-(4-morpholinyl)-4H-pyran-4-one], the EC50 falls from greater than 20 µM to 18.7 µM.

O=c1cc(-c2ccc(OCc3ccccc3)cc2)oc(N2CCOCC2)c1 [Compound 2] and O=c1cc(-c2cccc(OCc3ccccc3)c2)oc(N2CCOCC2)c1 [Compound 15, 2-(4-morpholinyl)-6-(3-(phenylmethoxy)phenyl)-4H-pyran-4-one] are within 1.5-fold of each other in EC50: 6.9 µM for the first, 9.1 µM for the second.

Going from O=c1cc(-c2ccc(OCc3ccccn3)cc2)oc(N2CCOCC2)c1 [Compound 6, 2-(4-Morpholinyl)-6-(4-(2-pyridinylmethoxy)phenyl)-4H-pyran-one] to CCCCC(Oc1ccc(-c2cc(=O)cc(N3CCOCC3)o2)cc1)c1ccccc1 (centres unmarked) [Compound 11, 2-(4-Morpholinyl)-6-(4-((1-phenylpentyl)oxy)phenyl)-4H-pyran-4-one], the EC50 rises from 14.8 µM to 22.9 µM (1.5-fold).

O=c1cc(-c2cccc(O)c2)oc(N2CCOCC2)c1 [Compound 16, 2-(3-hydroxyphenyl)-6-(4-morpholinyl)-4H-pyran-4-one] and O=c1cc(-c2ccc(O)cc2)oc(N2CCOCC2)c1 [Compound 1, 2-(4-Hydroxyphenyl)-6-(4-morpholinyl)-4H-pyran-4-one] are within 1.5-fold of each other in EC50: 28.5 µM for the first, 29.4 µM for the second.

First: O=c1cc(-c2ccc(OCCN3CCCCC3)cc2)oc(N2CCOCC2)c1 [Compound 7, 2-(4-Morpholinyl)-6-((4-(2-(1-piperidinyl)ethyl)oxy)phenyl)-4H-pyran-4-one]
Second: CC(C)(C)C(=O)COc1ccc(-c2cc(=O)cc(N3CCOCC3)o2)cc1 [Compound 4, 2-(4-(3,3-Dimethyl-2-oxobutoxy)phenyl)-6-(4-morpholinyl)-4H-pyran-4-one]
The EC50 of the first is higher: greater than 31.2 µM for the first, 9.4 µM for the second. The second is the more potent here.

With O=c1cc(-c2ccccc2)oc(N2CCOCC2)c1 [Compound 3, 2-(4-Morpholinyl)-6-phenyl-4H-pyran-4-one] the EC50 was 28 µM.

Same assay, conditions: percent inhibition at the maximum concentration tested

Compared with O=c1cc(-c2ccc(F)cc2)oc(N2CCOCC2)c1 [Compound 22, 2-(4-Fluorophenyl)-6-(4-morpholinyl)-4H-pyran-4-one], O=c1cc(-c2ccc(O)cc2)oc(N2CCOCC2)c1 [Compound 1, 2-(4-Hydroxyphenyl)-6-(4-morpholinyl)-4H-pyran-4-one] is higher in “Antiproliferative Assay Data Inhibition (%)” value: 25% for the first, 54% for the second.

Going from O=c1cc(-c2ccc(OCc3ccccn3)cc2)oc(N2CCOCC2)c1 [Compound 6, 2-(4-Morpholinyl)-6-(4-(2-pyridinylmethoxy)phenyl)-4H-pyran-one] to O=c1cc(-c2cccc(OCc3ccccc3)c2)oc(N2CCOCC2)c1 [Compound 15, 2-(4-morpholinyl)-6-(3-(phenylmethoxy)phenyl)-4H-pyran-4-one], the “Antiproliferative Assay Data Inhibition (%)” value rises from 72% to 96%.

Compared with O=c1cc(-c2cccc(O)c2)oc(N2CCOCC2)c1 [Compound 16, 2-(3-hydroxyphenyl)-6-(4-morpholinyl)-4H-pyran-4-one], CC(C)(C)C(=O)COc1ccc(-c2cc(=O)cc(N3CCOCC3)o2)cc1 [Compound 4, 2-(4-(3,3-Dimethyl-2-oxobutoxy)phenyl)-6-(4-morpholinyl)-4H-pyran-4-one] is lower in “Antiproliferative Assay Data Inhibition (%)” value: 73% for the first, 66% for the second.

Compared with O=c1cc(-c2ccc(OCCN3CCCCC3)cc2)oc(N2CCOCC2)c1 [Compound 7, 2-(4-Morpholinyl)-6-((4-(2-(1-piperidinyl)ethyl)oxy)phenyl)-4H-pyran-4-one], O=c1cc(CN2CCOCC2)oc(-c2ccc(O)cc2)c1 [Compound 14, 2-(4-hydroxyphenyl)-6-(4-morpholinylmethyl)-4H-pyran-4-one] is lower in “Antiproliferative Assay Data Inhibition (%)” value: 30% for the first, 0% for the second.

Each compound was assayed on ADP induced platelet aggregation (assay: Inhibition of ADP-induced platelet aggregation (procedure of Born and Cross)). Conditions: read-out: Inhibition of Platelet Aggregation 10 ug/ml.
Format: cell-based
Procedure: Most compounds of Formula I are active as inhibitors of platelet aggregation as shown in Table 1 by the test procedure described in Born, G.R., Cross M.J., J. Physiol., 168, p. 178 (1963).
Also, reported is the percent inhibition of platelet aggregation at 10ug/ml and 30 ug/ml concentrations.

Compared with O=c1cc(-c2ccc(F)cc2)oc(N2CCOCC2)c1 [Compound 22, 2-(4-Fluorophenyl)-6-(4-morpholinyl)-4H-pyran-4-one], Nc1ccc(-c2cc(=O)cc(N3CCOCC3)o2)cc1 [Compound 25, 2-(4-Aminophenyl)-6-(4-morpholinyl)-4H-pyran-4-one] is higher in inhibition at 10 µg/mL: 42% for the first, 45% for the second.

Going from O=c1cc(-c2ccc(OCc3ccccc3)cc2)oc(N2CCOCC2)c1 [Compound 2] to O=c1cc(-c2cccc(OCc3ccccc3)c2)oc(N2CCOCC2)c1 [Compound 15, 2-(4-morpholinyl)-6-(3-(phenylmethoxy)phenyl)-4H-pyran-4-one], the inhibition at 10 µg/mL falls from 10% to 0%.

First: O=c1cc(-c2ccc(OCc3ccccn3)cc2)oc(N2CCOCC2)c1 [Compound 6, 2-(4-Morpholinyl)-6-(4-(2-pyridinylmethoxy)phenyl)-4H-pyran-one]
Second: CCCCC(Oc1ccc(-c2cc(=O)cc(N3CCOCC3)o2)cc1)c1ccccc1 (centres unmarked) [Compound 11, 2-(4-Morpholinyl)-6-(4-((1-phenylpentyl)oxy)phenyl)-4H-pyran-4-one]
The inhibition at 10 µg/mL of the first is higher: 25% for the first, 10% for the second.

First: O=c1cc(-c2cccc(O)c2)oc(N2CCOCC2)c1 [Compound 16, 2-(3-hydroxyphenyl)-6-(4-morpholinyl)-4H-pyran-4-one]
Second: O=c1cc(-c2ccc(O)cc2)oc(N2CCOCC2)c1 [Compound 1, 2-(4-Hydroxyphenyl)-6-(4-morpholinyl)-4H-pyran-4-one]
The inhibition at 10 µg/mL of the first is lower: 5% for the first, 75% for the second.

First: O=c1cc(-c2ccc(OCCN3CCCCC3)cc2)oc(N2CCOCC2)c1 [Compound 7, 2-(4-Morpholinyl)-6-((4-(2-(1-piperidinyl)ethyl)oxy)phenyl)-4H-pyran-4-one]
Second: CC(C)(C)C(=O)COc1ccc(-c2cc(=O)cc(N3CCOCC3)o2)cc1 [Compound 4, 2-(4-(3,3-Dimethyl-2-oxobutoxy)phenyl)-6-(4-morpholinyl)-4H-pyran-4-one]
The inhibition at 10 µg/mL of the first is higher: 60% for the first, 45% for the second.

Going from O=c1cc(-c2ccccc2)oc(N2CCOCC2)c1 [Compound 3, 2-(4-Morpholinyl)-6-phenyl-4H-pyran-4-one] to O=c1cc(CN2CCOCC2)oc(-c2ccc(O)cc2)c1 [Compound 14, 2-(4-hydroxyphenyl)-6-(4-morpholinylmethyl)-4H-pyran-4-one], the inhibition at 10 µg/mL falls from 45% to 0%.

Same assay, conditions: read-out: Inhibition of Platelet Aggregation 30 ug/ml

Going from O=c1cc(-c2ccc(F)cc2)oc(N2CCOCC2)c1 [Compound 22, 2-(4-Fluorophenyl)-6-(4-morpholinyl)-4H-pyran-4-one] to Nc1ccc(-c2cc(=O)cc(N3CCOCC3)o2)cc1 [Compound 25, 2-(4-Aminophenyl)-6-(4-morpholinyl)-4H-pyran-4-one], the inhibition at 30 µg/mL falls from 61% to 55%.

First: O=c1cc(-c2ccc(OCc3ccccc3)cc2)oc(N2CCOCC2)c1 [Compound 2]
Second: O=c1cc(-c2cccc(OCc3ccccc3)c2)oc(N2CCOCC2)c1 [Compound 15, 2-(4-morpholinyl)-6-(3-(phenylmethoxy)phenyl)-4H-pyran-4-one]
The inhibition at 30 µg/mL of the first is higher: 15% for the first, 0% for the second.

Going from O=c1cc(-c2ccc(OCc3ccccn3)cc2)oc(N2CCOCC2)c1 [Compound 6, 2-(4-Morpholinyl)-6-(4-(2-pyridinylmethoxy)phenyl)-4H-pyran-one] to CCCCC(Oc1ccc(-c2cc(=O)cc(N3CCOCC3)o2)cc1)c1ccccc1 (centres unmarked) [Compound 11, 2-(4-Morpholinyl)-6-(4-((1-phenylpentyl)oxy)phenyl)-4H-pyran-4-one], the inhibition at 30 µg/mL falls from 40% to 10%.

Compared with O=c1cc(-c2cccc(O)c2)oc(N2CCOCC2)c1 [Compound 16, 2-(3-hydroxyphenyl)-6-(4-morpholinyl)-4H-pyran-4-one], O=c1cc(-c2ccc(O)cc2)oc(N2CCOCC2)c1 [Compound 1, 2-(4-Hydroxyphenyl)-6-(4-morpholinyl)-4H-pyran-4-one] is higher in inhibition at 30 µg/mL: 44% for the first, 95% for the second.

Going from O=c1cc(-c2ccc(OCCN3CCCCC3)cc2)oc(N2CCOCC2)c1 [Compound 7, 2-(4-Morpholinyl)-6-((4-(2-(1-piperidinyl)ethyl)oxy)phenyl)-4H-pyran-4-one] to CC(C)(C)C(=O)COc1ccc(-c2cc(=O)cc(N3CCOCC3)o2)cc1 [Compound 4, 2-(4-(3,3-Dimethyl-2-oxobutoxy)phenyl)-6-(4-morpholinyl)-4H-pyran-4-one], the inhibition at 30 µg/mL falls from 70% to 60%.

Going from O=c1cc(-c2ccccc2)oc(N2CCOCC2)c1 [Compound 3, 2-(4-Morpholinyl)-6-phenyl-4H-pyran-4-one] to O=c1cc(CN2CCOCC2)oc(-c2ccc(O)cc2)c1 [Compound 14, 2-(4-hydroxyphenyl)-6-(4-morpholinylmethyl)-4H-pyran-4-one], the inhibition at 30 µg/mL falls from 50% to 0%.
